Assay results from ChEMBL document CHEMBL1201862, “PubChem BioAssay data set” (2004).
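Tested at 5 concentrations; 48 h exposure; 96-well plates; endpoints linearly interpolated, else capped at highest concentration. GI50 = concentration required for 50% inhibition of growth.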 Activity calls are given as the source filed them. Cut-off read from the data, not from the text of the source: active = GI50 up to about 1.1 µM and inactive = higher.

How the values were obtained:
Assay in all cases: growth of human tumour cells (NCI), 48 h
786-0 = tested on: 786-0
A549 = tested on: A549
ACHN = tested on: ACHN
BT-549 = tested on: BT-549
CAKI-1 = tested on: CAKI-1
CCRF-CEM = tested on: CCRF-CEM
COLO 205 = tested on: COLO 205
DU-145 = tested on: DU-145
HCT-116 = tested on: HCT-116
HCT-15 = tested on: HCT-15
HL-60 = tested on: HL-60
HOP-62 = tested on: HOP-62
HOP-92 = tested on: HOP-92
HT-29 = tested on: HT-29
Hs-578T = tested on: Hs-578T
IGROV-1 = tested on: IGROV-1
K562 = tested on: K562
LOX IMVI = tested on: LOX IMVI
M14 = tested on: M14
MDA-MB-231 = tested on: MDA-MB-231
MDA-MB-435 = tested on: MDA-MB-435
MDA-N = tested on: MDA-N
MOLT-4 = tested on: MOLT-4
Malme-3M = tested on: Malme-3M
NCI-H226 = tested on: NCI-H226
NCI-H23 = tested on: NCI-H23
NCI-H460 = tested on: NCI-H460
NCI-H522 = tested on: NCI-H522
NCI/ADR-RES = tested on: NCI/ADR-RES
OVCAR-3 = tested on: OVCAR-3
OVCAR-4 = tested on: OVCAR-4
OVCAR-5 = tested on: OVCAR-5
OVCAR-8 = tested on: OVCAR-8
PC-3 = tested on: PC-3
RPMI-8226 = tested on: RPMI-8226
RXF 393 = tested on: RXF 393
SF-268 = tested on: SF-268
SF-295 = tested on: SF-295
SF-539 = tested on: SF-539
SK-MEL-28 = tested on: SK-MEL-28
SK-MEL-2 = tested on: SK-MEL-2
SK-MEL-5 = tested on: SK-MEL-5
SK-OV-3 = tested on: SK-OV-3
SN12C = tested on: SN12C
SNB-19 = tested on: SNB-19
SNB-75 = tested on: SNB-75
SR = tested on: SR
SW-620 = tested on: SW-620
T47D = tested on: T47D
TK-10 = tested on: TK-10
UACC-257 = tested on: UACC-257
UO-31 = tested on: UO-31
A498 = tested on: A498
EKVX = tested on: EKVX
HCC 2998 = tested on: HCC 2998
KM12 = tested on: KM12
MCF7 = tested on: MCF7
U-251 = tested on: U-251
UACC-62 = tested on: UACC-62

CC(=O)N1C(OCc2ccccc2)CCN1c1ccccc1 (stereo unspecified)
GI50 (786-0): > 10 µM (inactive) | GI50 (A549): > 10 µM (inactive) | GI50 (ACHN): > 10 µM (inactive) | GI50 (BT-549): > 10 µM (inactive) | GI50 (CAKI-1): > 10 µM (inactive) | GI50 (CCRF-CEM): > 10 µM (inactive) | GI50 (COLO 205): > 10 µM (inactive) | GI50 (DU-145): > 10 µM (inactive) | GI50 (HCT-116): > 10 µM (inactive) | GI50 (HCT-15): > 10 µM | GI50 (HL-60): > 10 µM (inactive) | GI50 (HOP-62): > 10 µM (inactive) | GI50 (HOP-92): 3.29 µM (inactive) | GI50 (HT-29): > 10 µM (inactive) | GI50 (Hs-578T): > 10 µM (inactive) | GI50 (IGROV-1): > 10 µM (inactive) | GI50 (K562): > 10 µM (inactive) | GI50 (LOX IMVI): > 10 µM (inactive) | GI50 (M14): > 10 µM (inactive) | GI50 (MDA-MB-231): > 10 µM (inactive) | GI50 (MDA-MB-435): > 10 µM (inactive) | GI50 (MDA-N): > 10 µM (inactive) | GI50 (MOLT-4): > 10 µM (inactive) | GI50 (Malme-3M): > 10 µM (inactive) | GI50 (NCI-H226): > 10 µM (inactive) | GI50 (NCI-H23): > 10 µM (inactive) | GI50 (NCI-H460): > 10 µM (inactive) | GI50 (NCI-H522): > 10 µM (inactive) | GI50 (NCI/ADR-RES): > 10 µM (inactive) | GI50 (OVCAR-3): > 10 µM (inactive) | GI50 (OVCAR-4): > 10 µM (inactive) | GI50 (OVCAR-5): > 10 µM (inactive) | GI50 (OVCAR-8): > 10 µM (inactive) | GI50 (PC-3): > 10 µM (inactive) | GI50 (RPMI-8226): > 10 µM (inactive) | GI50 (RXF 393): > 10 µM (inactive) | GI50 (SF-268): > 10 µM (inactive) | GI50 (SF-295): > 10 µM (inactive) | GI50 (SF-539): > 10 µM (inactive) | GI50 (SK-MEL-28): > 10 µM (inactive) | GI50 (SK-MEL-2): > 10 µM (inactive) | GI50 (SK-MEL-5): > 10 µM (inactive) | GI50 (SK-OV-3): > 10 µM (inactive) | GI50 (SN12C): > 10 µM (inactive) | GI50 (SNB-19): > 10 µM (inactive) | GI50 (SNB-75): > 10 µM (inactive) | GI50 (SR): > 10 µM (inactive) | GI50 (SW-620): > 10 µM (inactive) | GI50 (T47D): > 10 µM (inactive) | GI50 (TK-10): > 10 µM (inactive) | GI50 (UACC-257): > 10 µM (inactive) | GI50 (UO-31): > 10 µM (inactive)

COc1ccc(-c2nc(O)c3ccccc3n2)c(OC)c1
GI50 (786-0): > 100 µM (inactive) | GI50 (A498): > 100 µM (inactive) | GI50 (A549): > 100 µM (inactive) | GI50 (ACHN): > 100 µM (inactive) | GI50 (BT-549): > 100 µM (inactive) | GI50 (CAKI-1): > 100 µM (inactive) | GI50 (CCRF-CEM): > 100 µM (inactive) | GI50 (COLO 205): > 100 µM (inactive) | GI50 (DU-145): > 100 µM (inactive) | GI50 (EKVX): > 100 µM (inactive) | GI50 (HCC 2998): > 100 µM (inactive) | GI50 (HCT-116): > 100 µM (inactive) | GI50 (HCT-15): > 100 µM | GI50 (HOP-62): > 100 µM (inactive) | GI50 (HT-29): > 100 µM (inactive) | GI50 (Hs-578T): > 100 µM (inactive) | GI50 (IGROV-1): > 100 µM (inactive) | GI50 (KM12): > 100 µM (inactive) | GI50 (M14): > 100 µM (inactive) | GI50 (MCF7): > 100 µM (inactive) | GI50 (MDA-MB-231): > 100 µM (inactive) | GI50 (MDA-MB-435): > 100 µM (inactive) | GI50 (MDA-N): > 100 µM (inactive) | GI50 (MOLT-4): > 100 µM (inactive) | GI50 (Malme-3M): > 100 µM (inactive) | GI50 (NCI-H226): > 100 µM (inactive) | GI50 (NCI-H23): > 100 µM (inactive) | GI50 (NCI-H460): > 100 µM (inactive) | GI50 (NCI/ADR-RES): > 100 µM (inactive) | GI50 (OVCAR-3): > 100 µM (inactive) | GI50 (OVCAR-4): > 100 µM (inactive) | GI50 (OVCAR-5): > 100 µM (inactive) | GI50 (OVCAR-8): > 100 µM (inactive) | GI50 (PC-3): > 100 µM (inactive) | GI50 (RPMI-8226): 29.1 µM (inactive) | GI50 (RXF 393): > 100 µM (inactive) | GI50 (SF-268): > 100 µM (inactive) | GI50 (SF-295): > 100 µM (inactive) | GI50 (SK-MEL-2): > 100 µM (inactive) | GI50 (SK-MEL-5): > 100 µM (inactive) | GI50 (SK-OV-3): > 100 µM (inactive) | GI50 (SN12C): > 100 µM (inactive) | GI50 (SNB-19): > 100 µM (inactive) | GI50 (SNB-75): > 100 µM (inactive) | GI50 (SW-620): > 100 µM (inactive) | GI50 (T47D): > 100 µM (inactive) | GI50 (U-251): > 100 µM (inactive) | GI50 (UACC-257): > 100 µM (inactive) | GI50 (UACC-62): > 100 µM (inactive) | GI50 (UO-31): > 100 µM (inactive)

O=[N+]([O-])C(/C(Cl)=C(/Cl)N1CCCCC1)=C1\NCCO1
GI50 (786-0): > 100 µM (inactive) | GI50 (A498): > 100 µM (inactive) | GI50 (A549): > 100 µM (inactive) | GI50 (ACHN): > 100 µM (inactive) | GI50 (BT-549): > 100 µM (inactive) | GI50 (CAKI-1): > 100 µM (inactive) | GI50 (CCRF-CEM): > 100 µM (inactive) | GI50 (COLO 205): > 100 µM (inactive) | GI50 (DU-145): > 100 µM (inactive) | GI50 (EKVX): > 100 µM (inactive) | GI50 (HCC 2998): > 100 µM (inactive) | GI50 (HCT-116): > 100 µM (inactive) | GI50 (HCT-15): > 100 µM | GI50 (HOP-62): > 100 µM (inactive) | GI50 (HT-29): > 100 µM (inactive) | GI50 (Hs-578T): > 100 µM (inactive) | GI50 (KM12): > 100 µM (inactive) | GI50 (M14): > 100 µM (inactive) | GI50 (MCF7): > 100 µM (inactive) | GI50 (MDA-MB-231): > 100 µM (inactive) | GI50 (MDA-MB-435): > 100 µM (inactive) | GI50 (MDA-N): > 100 µM (inactive) | GI50 (MOLT-4): > 100 µM (inactive) | GI50 (Malme-3M): > 100 µM (inactive) | GI50 (NCI-H226): > 100 µM (inactive) | GI50 (NCI-H23): > 100 µM (inactive) | GI50 (NCI-H460): > 100 µM (inactive) | GI50 (NCI/ADR-RES): > 100 µM (inactive) | GI50 (OVCAR-3): > 100 µM (inactive) | GI50 (OVCAR-4): > 100 µM (inactive) | GI50 (OVCAR-5): > 100 µM (inactive) | GI50 (OVCAR-8): > 100 µM (inactive) | GI50 (PC-3): > 100 µM (inactive) | GI50 (RPMI-8226): > 100 µM (inactive) | GI50 (SF-268): > 100 µM (inactive) | GI50 (SF-295): > 100 µM (inactive) | GI50 (SF-539): > 100 µM (inactive) | GI50 (SK-MEL-28): > 100 µM (inactive) | GI50 (SK-MEL-2): > 100 µM (inactive) | GI50 (SK-OV-3): > 100 µM (inactive) | GI50 (SN12C): > 100 µM (inactive) | GI50 (SNB-19): > 100 µM (inactive) | GI50 (SNB-75): > 100 µM (inactive) | GI50 (SW-620): > 100 µM (inactive) | GI50 (T47D): > 100 µM (inactive) | GI50 (U-251): > 100 µM (inactive) | GI50 (UACC-257): > 100 µM (inactive) | GI50 (UACC-62): > 100 µM (inactive) | GI50 (UO-31): > 100 µM (inactive)
